Assay results reported in PubChem BioAssay AID2060488 (Molecular Pharmacology Branch, DTP, NCI, 2025).
Values joined by “and” are separate entries in the source; they are usually repeats but may differ in a detail not shown here. Identical values can stand only once.

Tested on: 966289-007-R4-J1-PDC complex spheroid viability
Test: Anticancer human tumor 966289-007-R4-J1-PDC patient-derived pancreatic adenocarcinoma cell line growth inhibition [GQUAD]
Conditions: for viability, T/C: stronger effect = lower value
Source text: DNA G-quadruplex Stabilizer Agents in Combinations in Complex Spheroids
A high-throughput screen of multi-cell type tumor spheroids was designed to identify active combinations of DNA G-quadruplex stabilizer agents and targeted small molecules. Complex spheroids include a stromal component modeled by human endothelial cells (HUVEC) and fibroblasts modeled by human mesenchymal stem cells (MSCs). The concentration ranges selected for each drug and investigational agent were based upon clinically achievable concentrations if the clinical Cmax of the agent was known.
Compounds. The drugs and investigational agents: pidnarulex (CX-5461; NSC782164), APTO-253 (NSC789042), BRACO-19 (NSC847499), peposertib (NSC802822), ceralasertib (NSC780249), elimusertib (NSC800525), camonsertib (NSC841442), AZD-1390 (NSC803789), olaparib (NSC753686), talazoparib (NSC767125), ART-558 (NSC835418), sotorasib (NSC818433), MRTX-1133 (NSC836407), SN-38 (NSC673596), topotecan (NSC609699), etoposide (NSC141540), doxorubicin (NSC123127), gemcitabine (NSC613327), 5-fluorouracil (NSC19893), paclitaxel (NSC125973), vemurafenib (NSC761431), panobinostat (NSC761190), R-306465 (JNJ-16241199; NSC773264), adavosertib (NSC754352), TP-3654 (NSC805149), carboplatin (NSC241240), KSQ-4279 (NSC840948), and staurosporine (NSC755774) were obtained from the National Cancer Institute (NCI) Developmental Therapeutics Program Chemical Repository (34). The FDA-approved anticancer drug set is available from the NCI Developmental Therapeutics Program. […] The stock solutions were prepared in dimethyl sulfoxide (DMSO, Sigma-Aldrich, St. Louis, MO, cat. D2650) at 800-fold the tested concentration and stored at -70 degrees C prior to their use. All drugs and investigational agents were tested over a range starting from a high concentration at or near the clinical Cmax and decreasing in half-log increments. If the clinical Cmax for an agent had not been determined, the highest concentration tested was 10 microM.
2.3 Cell Culture. All cells were maintained in an incubator at 37 degrees C and 5% CO2 with 95% humidity. The PDC lines were cultured according to standard operating procedures established by the NCI PDMR. All PDCs were thawed and cultured in Matrigel-coated flasks prepared with a working solution of 1X Ham's F-12 nutrient mix, without supplementation (Invitrogen, cat. 11765054), 100 U/mL penicillin-streptomycin (Invitrogen, cat. 15140122), and 2.5% Matrigel (Corning Inc., cat. 354248) for the first three passages. The 857933-349-R-J2-PDC line was cultured in 6C/Colon 1B media, which includes advanced DMEM/F-12 (Thermo Fisher Scientific, cat. 12634028), 10 mM HEPES (Thermo Fisher Scientific, cat. 15630080), 1X GlutaMAX supplement (Thermo Fisher Scientific, cat. 35050061), 0.1 mg/mL primocin (InvivoGen, cat. ant-pm-2), 10% defined fetal bovine serum, heat inactivated (HyClone Laboratories Inc., cat. SH30070.03HI), 50% L-WRN conditioned media (ATCC, cat. CRL-3276), 1.25 mM N-Acetyl-L-cysteine (Sigma-Aldrich, cat. A9165), 10 mM nicotinamide (Sigma-Aldrich, cat. N0636), 1X B-27 supplement (Thermo Fisher Scientific, cat. 17504044), 1X N-2 supplement (Thermo Fisher Scientific, cat. 17502048), 10 microM Y-27632 dihydrochloride (Tocris Bioscience, cat. 1254), and 50 ng/mL human EGF recombinant protein (Thermo Fisher Scientific, cat. PHG0311). The 485176-168-R4-J1-PDC line was cultured in Panc media, which includes all 6C/Colon 1B media components plus 100 ng/mL human FGF-10 (Thermo Fisher Scientific, cat. 100-26), 500 nM SB-431542 (Selleckchem, cat. S1067), and gastrin (Tocris, cat. 3006).
[…]

[1] = compound alone, run of 03/18/2024
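Note: spheroids exposed to the agents for seven days before readout.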
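Throughout, for viability, T/C: percent viability relative to DMSO vehicle control wells taken as 100%.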

| IC50 (curve of compound) | IC50 [1] | IC50 (compound alone, run of 03/26/2024) [µM] | SMILES | viability, T/C (compound 0.0316 µM) | viability, T/C (compound 0.1 µM) | viability, T/C (compound 0.316 µM) | viability, T/C (compound 1 µM) | viability, T/C (compound 3.16 µM) | viability, T/C (compound 10 µM) | viability, T/C (compound 0.000999 µM) | viability, T/C (compound 0.00316 µM) | viability, T/C (compound 0.00999 µM) | viability, T/C (compound 0.0999 µM) |
| --- | --- | --- | --- | --- | --- | --- | --- | --- | --- | --- | --- | --- | --- |
| 0.271 µM and 0.32 µM |  |  | COc1cc(C2c3cc4c(cc3C(OC3OC5COC(C)OC5C(O)C3O)C3COC(=O)C23)OCO4)cc(OC)c1O (stereo unspecified) | 106% (2×) and 108% | 108% and 111% and 110% | 41.2% and 40.8% and 50.3% | 5.14% and 5.7% and 8.75% | 1.52% and 0.98% and 2.8% | 0.83% and 0.61% and 0.86% |  |  |  |  |
| > 10 µM |  |  | COc1ccc([C@@H](O)c2cc(-c3ncnc4cc(N5CCOCC5)ccc34)c(F)cc2Cl)nn1 | 103% and 98.9% and 97.2% | 92.9% and 100% and 92% | 110% and 106% and 105% | 103% (2×) and 108% | 113% and 110% and 126% | 90.2% and 103% and 108% |  |  |  |  |
| 0.065 µM and 0.069 µM and 0.0602 µM |  |  | COc1cccc2c1C(=O)c1c(O)c3c(c(O)c1C2=O)CC(O)(C(=O)CO)CC3OC1CC(N)C(O)C(C)O1 (stereo unspecified) | 112% and 114% and 102% | 12.9% and 19.6% and 8.98% | 3.19% and 2.75% and 1.72% | 0.71% and 0.91% and 0.56% | 0.27% and 0.41% and 0.16% | 0.4% and 0.47% and 0.34% |  |  |  |  |
| > 10 µM |  |  | COc1ncnc(C2CC2)c1-c1ncc2cnn(Cc3ccc(-c4nc(C(F)(F)F)cn4C(C)C)cc3)c2n1 | 92.2% and 102% and 104% | 102% and 103% and 100% | 101% and 102% and 100% | 107% and 98% and 97% | 103% and 106% (2×) | 116% and 108% (2×) |  |  |  |  |
|  | > 10 µM | > 10 | Cc1[nH]c2ccc(F)cc2c1-c1nc2c3cccnc3c3ncccc3c2[nH]1 | 104% [middle of 11 runs] | 108% [middle of 11 runs] | 109% [middle of 11 runs] | 109% [middle of 11 runs] | 106% [middle of 11 runs] | 98.2% [middle of 11 runs] |  |  |  |  |
| 0.073 µM and 0.0711 µM and 0.0634 µM |  |  | Cc1[nH]c2ccccc2c1CCNCc1ccc(/C=C/C(=O)NO)cc1 | 100% and 97.8% and 99.5% |  | 4.6% and 4.59% and 3.46% |  |  |  | 110% and 92.2% and 99.7% | 100% and 103% and 113% | 104% and 91% and 101% | 31.1% and 30.7% and 17.7% |
| > 10 µM |  |  | Cc1cccc(N(C)C(=O)C2C(O)CCN2c2nc(C)cc(C(F)(F)F)c2C#N)c1 (stereo unspecified) | 92% and 111% and 99.9% | 98.4% and 97.2% and 95.8% | 103% (2×) and 109% | 94.9% and 98% and 99.5% | 107% and 106% and 89.2% | 102% and 107% (2×) |  |  |  |  |
|  | 81.7 nM [middle of 11 runs] |  | Cc1cnc(CNC(=O)c2c(=O)c3ccc(N4CCCN(C)CC4)nc3n3c2sc2ccccc23)cn1 |  | 36.7% [middle of 12 runs] | 12.6% [middle of 12 runs] | 6.91% [middle of 11 runs] | 5.45% [middle of 11 runs] | 0.16% [middle of 11 runs] |  |  |  |  |
| 0.0961 µM and 0.168 µM and 0.0919 µM |  |  | Cn1ncnc1[C@H]1c2n[nH]c(=O)c3cc(F)cc(c23)N[C@@H]1c1ccc(F)cc1 | 92.4% and 104% and 99.6% |  | 22.8% and 22.4% and 18% |  |  |  | 105% and 99.3% and 95.6% | 91.2% and 98.8% and 98.2% | 113% and 105% and 112% | 48.8% and 72.8% and 46.1% |
| < 0.0316 µM |  |  | Nc1ccn(C2OC(CO)C(O)C2(F)F)c(=O)n1 (stereo unspecified) | 6.63% and 12% and 8.01% | 0.75% and 1.27% and 0.79% | 0.96% and 0.9% and 0.65% | 0.7% and 0.97% and 0.68% | 0.83% and 1.32% and 0.61% | 0.79% and 1.07% and 0.63% |  |  |  |  |
| 0.241 µM and 0.258 µM and 0.48 µM |  |  | O=C(NO)c1cnc(N2CCN(S(=O)(=O)c3ccc4ccccc4c3)CC2)nc1 | 104% and 97% and 89.4% | 104% (2×) and 99.9% | 33.4% and 39% and 70% | 7.89% and 9.13% and 14.1% | 1.55% and 1.2% and 4.88% | 0.4% and 0.34% and 0.29% |  |  |  |  |
| 4.52 µM and 5.32 µM and 4.18 µM |  |  | O=C(c1cc(Cc2n[nH]c(=O)c3ccccc23)ccc1F)N1CCN(C(=O)C2CC2)CC1 | 111% and 99.1% and 104% | 98.8% and 108% and 98.4% | 109% and 105% and 111% | 106% and 108% and 112% | 67.5% and 82.8% and 61.1% | 11.2% and 10.4% and 14.9% |  |  |  |  |
| 0.197 µM and 0.176 µM and 0.196 µM |  |  | O=c1[nH]cc(F)c(=O)[nH]1 | 102% and 98.6% and 93.7% | 102% and 85.7% and 101% | 14% and 12.6% and 16.4% | 6.4% and 6.04% and 6.66% | 6.46% and 5.66% and 4.89% | 6.43% and 6.71% and 6.08% |  |  |  |  |
